For test [1], the target named is T1, Tyrosine-protein kinase ITK/TSK (Homo sapiens) (UniProt Q08881).
T1 sequence (whole entry): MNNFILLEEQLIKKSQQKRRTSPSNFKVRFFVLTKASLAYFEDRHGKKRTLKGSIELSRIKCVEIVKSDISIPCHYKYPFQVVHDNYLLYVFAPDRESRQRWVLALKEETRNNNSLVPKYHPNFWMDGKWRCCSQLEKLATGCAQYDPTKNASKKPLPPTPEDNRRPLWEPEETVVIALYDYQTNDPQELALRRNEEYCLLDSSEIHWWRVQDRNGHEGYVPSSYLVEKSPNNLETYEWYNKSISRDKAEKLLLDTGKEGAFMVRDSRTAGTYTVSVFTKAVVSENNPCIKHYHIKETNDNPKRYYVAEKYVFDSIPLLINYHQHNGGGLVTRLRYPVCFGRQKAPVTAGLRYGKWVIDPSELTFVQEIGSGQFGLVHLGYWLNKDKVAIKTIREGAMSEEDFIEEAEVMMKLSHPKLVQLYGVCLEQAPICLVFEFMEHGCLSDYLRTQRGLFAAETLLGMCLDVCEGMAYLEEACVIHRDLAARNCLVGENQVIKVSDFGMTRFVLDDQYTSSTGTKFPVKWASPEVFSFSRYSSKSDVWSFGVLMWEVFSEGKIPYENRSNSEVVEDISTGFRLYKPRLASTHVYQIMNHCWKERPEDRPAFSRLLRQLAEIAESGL
The test can be described thus: Inhibition of recombinant human N-terminal His6-tagged ITK (352 to 617 residues) expressed in baculovirus infected Sf21 insect cells assessed as inactivation rate constant using STK substrate by HTRF assay. Background: In TR-FRET formats the signal depends on donor and acceptor labels being close together.

Test [2] has as its target T1, Tyrosine-protein kinase ITK/TSK (Homo sapiens). The experiment in a line: Inhibition of ITK in human Jurkat cells assessed as reduction in anti-CD3/CD28-stimulated PLCgamma1 phosphorylation at 0.1 to 10000 nM preincubated for 2 hrs followed by anti-CD3/CD28 beads addition and measured after 30 min by Western blot analysis. It counts as cell-based.
Test [3] has as its target T2, Tyrosine-protein kinase ITK/TSK (Homo sapiens, UniProt Q08881).
T2 sequence (Q08881 whole entry): T1 sequence (whole entry)
The test can be described thus: Inhibition of recombinant human N-terminal His6-tagged ITK (352 to 617 residues) expressed in baculovirus infected Sf21 insect cells using STK substrate by HTRF assay.

For test [4], the target named is Epidermal growth factor receptor (Homo sapiens, UniProt P00533). The test can be described thus: Inhibition of recombinant human N-terminal GST-tagged EGFR kinase domain (696 to end residues) expressed in baculovirus infected Sf21 insect cells using STK as substrate by HTRF assay.
Test [5] deals with Tyrosine-protein kinase BTK (Homo sapiens, UniProt Q06187). The experiment in a line: Inhibition of recombinant human full-length N-terminal His6-tagged BTK expressed in baculovirus infected Sf21 insect cells using STK substrate by HTRF assay.
Test [6] deals with T3, Tyrosine-protein kinase JAK3 (Homo sapiens, UniProt P52333).
T3 sequence (P52333 whole entry): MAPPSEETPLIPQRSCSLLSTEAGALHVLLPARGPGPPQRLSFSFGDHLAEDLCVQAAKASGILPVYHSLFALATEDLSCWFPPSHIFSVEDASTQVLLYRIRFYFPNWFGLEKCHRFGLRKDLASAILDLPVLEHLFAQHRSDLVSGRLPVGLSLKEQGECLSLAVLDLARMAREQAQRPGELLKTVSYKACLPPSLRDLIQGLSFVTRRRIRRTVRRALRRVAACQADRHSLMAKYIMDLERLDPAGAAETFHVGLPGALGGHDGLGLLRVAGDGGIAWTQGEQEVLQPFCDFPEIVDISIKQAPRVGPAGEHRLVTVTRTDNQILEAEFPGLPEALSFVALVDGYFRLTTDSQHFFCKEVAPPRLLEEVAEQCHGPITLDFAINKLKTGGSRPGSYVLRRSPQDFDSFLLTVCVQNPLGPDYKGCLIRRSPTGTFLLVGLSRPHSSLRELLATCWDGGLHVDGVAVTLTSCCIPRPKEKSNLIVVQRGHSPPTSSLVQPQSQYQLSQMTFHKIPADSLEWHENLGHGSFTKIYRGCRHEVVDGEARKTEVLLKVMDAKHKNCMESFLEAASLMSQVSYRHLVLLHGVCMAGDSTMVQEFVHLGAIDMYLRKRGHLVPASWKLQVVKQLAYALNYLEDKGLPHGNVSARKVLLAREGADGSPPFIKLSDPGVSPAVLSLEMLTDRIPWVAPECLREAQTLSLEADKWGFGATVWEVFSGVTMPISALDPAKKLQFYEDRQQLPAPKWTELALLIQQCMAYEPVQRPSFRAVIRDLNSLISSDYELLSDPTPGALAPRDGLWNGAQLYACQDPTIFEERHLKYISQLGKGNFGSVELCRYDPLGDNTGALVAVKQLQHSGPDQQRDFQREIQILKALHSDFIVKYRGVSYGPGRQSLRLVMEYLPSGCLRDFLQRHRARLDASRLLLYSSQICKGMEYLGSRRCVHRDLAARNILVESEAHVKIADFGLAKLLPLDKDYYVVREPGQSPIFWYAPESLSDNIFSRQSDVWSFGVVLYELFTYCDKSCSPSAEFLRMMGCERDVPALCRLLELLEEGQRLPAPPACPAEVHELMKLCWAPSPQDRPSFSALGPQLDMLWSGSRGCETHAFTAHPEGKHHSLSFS
The experiment in a line: Inhibition of recombinant human N-terminal His6-tagged JAK3 (781 to end residues) expressed in baculovirus infected Sf21 cells using STK as substrate by HTRF assay.

Test [7] has as its target T1, Tyrosine-protein kinase ITK/TSK (Homo sapiens). The experiment in a line: Inhibition of recombinant human N-terminal His6-tagged ITK (352 to 617 residues) expressed in baculovirus infected Sf21 insect cells assessed as ratio of Kinact to Ki using STK substrate by HTRF assay.
Test [8] deals with T2, Tyrosine-protein kinase ITK/TSK. The test can be described thus: Inhibition of kinase tracer 236 binding to recombinant full length GST-tagged human ITK cytoplasmic domain expressed in baculovirus expression system incubated for 60 mins by Lanthascreen assay.
The target in test [9] is T1, Tyrosine-protein kinase ITK/TSK (Homo sapiens). The experiment in a line: Inhibition of human ITK at 1 uM using MAP as substrate in presence of [gamma33P]-ATP relative to control.
For test [10] the target is unchanged. The experiment in a line: Covalent binding affinity to recombinant human ITK assessed as binding to Cys442 residue at 50 uM incubated for 24 hrs prior to trypsin addition for 4 hrs and boiled for 3 min followed by chymotrypsin addition and measured after overnight incubation by LC/MS/MS analysis.
For the next test, the system named is Jurkat. The experiment in a line: Growth inhibition of human Jurkat cells incubated for 72 hrs by CellTiter-Glo luminescent cell viability assay. The format is functional.
For the next test, the system named is MOLT-4. The test can be described thus: Growth inhibition of human MOLT4 cells incubated for 72 hrs by CellTiter-Glo luminescent cell viability assay. The format is functional. As to conditions: MOLT-4, 72 h. A general note: In ATP-based viability assays light output follows the ATP content of the culture.
The subject of the next test is H9. The experiment in a line: Growth inhibition of human H9 cells incubated for 72 hrs by CellTiter-Glo luminescent cell viability assay. The format is functional. Conditions: H9, 72 h.
The next test relates to CCRF-CEM. The test can be described thus: Growth inhibition of human CCRF-CEM cells incubated for 72 hrs by CellTiter-Glo luminescent cell viability assay. It counts as functional.
For a further test, the system named is HEK-293T. The experiment in a line: Growth inhibition of HEK293T cells incubated for 72 hrs by CellTiter-Glo luminescent cell viability assay. The format is functional. Conditions: Homo sapiens.
The target in test [11] is Tyrosine-protein kinase Blk (Homo sapiens, UniProt P51451). The test can be described thus: Inhibition of BLK (unknown origin) using […] as substrate by HTRF assay.

SMILES strings stand for the structures. Activity calls are given as the source filed them. No cut-off for these calls is given here.

Sequence of Tyrosine-protein kinase BTK (Q06187 whole entry): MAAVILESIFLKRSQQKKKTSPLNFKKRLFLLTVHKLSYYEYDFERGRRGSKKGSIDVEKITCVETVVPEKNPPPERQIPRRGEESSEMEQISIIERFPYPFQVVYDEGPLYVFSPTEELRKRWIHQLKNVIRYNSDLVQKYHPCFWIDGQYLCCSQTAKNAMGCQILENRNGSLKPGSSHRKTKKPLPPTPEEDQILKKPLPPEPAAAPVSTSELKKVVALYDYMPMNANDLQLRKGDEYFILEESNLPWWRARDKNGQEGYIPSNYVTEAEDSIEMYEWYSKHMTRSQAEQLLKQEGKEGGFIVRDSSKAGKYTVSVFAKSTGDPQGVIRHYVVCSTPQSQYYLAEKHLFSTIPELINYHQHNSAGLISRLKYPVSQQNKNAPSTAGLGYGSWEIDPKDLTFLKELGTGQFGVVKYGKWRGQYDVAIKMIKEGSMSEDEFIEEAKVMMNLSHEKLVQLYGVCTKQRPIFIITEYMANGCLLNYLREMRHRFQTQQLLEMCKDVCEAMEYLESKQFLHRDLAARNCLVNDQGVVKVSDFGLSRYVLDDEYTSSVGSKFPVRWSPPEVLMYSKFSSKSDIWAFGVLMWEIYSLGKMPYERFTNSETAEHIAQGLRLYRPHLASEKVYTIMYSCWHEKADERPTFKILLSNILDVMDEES
Sequence of Epidermal growth factor receptor (P00533 whole entry, the tested form may be a part): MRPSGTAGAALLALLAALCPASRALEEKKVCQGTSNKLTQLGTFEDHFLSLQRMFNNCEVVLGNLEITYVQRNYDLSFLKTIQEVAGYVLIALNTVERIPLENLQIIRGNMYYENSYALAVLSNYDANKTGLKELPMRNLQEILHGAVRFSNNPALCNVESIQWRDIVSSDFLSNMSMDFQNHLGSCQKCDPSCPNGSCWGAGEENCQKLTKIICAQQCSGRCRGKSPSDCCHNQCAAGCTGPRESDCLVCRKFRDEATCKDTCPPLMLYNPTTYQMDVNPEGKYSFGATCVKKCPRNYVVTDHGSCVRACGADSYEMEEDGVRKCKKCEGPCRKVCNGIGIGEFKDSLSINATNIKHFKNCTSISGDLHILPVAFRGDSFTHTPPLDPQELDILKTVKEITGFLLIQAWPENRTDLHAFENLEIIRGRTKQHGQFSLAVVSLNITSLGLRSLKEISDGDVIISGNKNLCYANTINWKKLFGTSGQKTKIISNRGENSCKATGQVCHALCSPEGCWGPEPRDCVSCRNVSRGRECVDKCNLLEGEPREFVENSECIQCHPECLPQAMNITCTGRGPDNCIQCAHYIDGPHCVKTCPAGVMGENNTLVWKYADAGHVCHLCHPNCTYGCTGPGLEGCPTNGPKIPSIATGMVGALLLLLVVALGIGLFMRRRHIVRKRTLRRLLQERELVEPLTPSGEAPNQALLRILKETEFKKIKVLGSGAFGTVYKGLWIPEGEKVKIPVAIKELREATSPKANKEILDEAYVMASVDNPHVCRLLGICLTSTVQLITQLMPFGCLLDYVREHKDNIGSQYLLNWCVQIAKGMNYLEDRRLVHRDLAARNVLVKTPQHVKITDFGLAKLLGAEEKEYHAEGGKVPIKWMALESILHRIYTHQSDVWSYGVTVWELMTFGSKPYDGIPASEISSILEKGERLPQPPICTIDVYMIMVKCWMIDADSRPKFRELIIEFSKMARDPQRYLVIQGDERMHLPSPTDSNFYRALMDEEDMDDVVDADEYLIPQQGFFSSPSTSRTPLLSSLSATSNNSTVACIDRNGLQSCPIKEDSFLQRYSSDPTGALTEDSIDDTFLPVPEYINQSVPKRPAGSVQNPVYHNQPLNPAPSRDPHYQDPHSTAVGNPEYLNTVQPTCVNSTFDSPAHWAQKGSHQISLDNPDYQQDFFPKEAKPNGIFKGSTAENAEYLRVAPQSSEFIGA
Sequence of Tyrosine-protein kinase Blk (P51451 whole entry): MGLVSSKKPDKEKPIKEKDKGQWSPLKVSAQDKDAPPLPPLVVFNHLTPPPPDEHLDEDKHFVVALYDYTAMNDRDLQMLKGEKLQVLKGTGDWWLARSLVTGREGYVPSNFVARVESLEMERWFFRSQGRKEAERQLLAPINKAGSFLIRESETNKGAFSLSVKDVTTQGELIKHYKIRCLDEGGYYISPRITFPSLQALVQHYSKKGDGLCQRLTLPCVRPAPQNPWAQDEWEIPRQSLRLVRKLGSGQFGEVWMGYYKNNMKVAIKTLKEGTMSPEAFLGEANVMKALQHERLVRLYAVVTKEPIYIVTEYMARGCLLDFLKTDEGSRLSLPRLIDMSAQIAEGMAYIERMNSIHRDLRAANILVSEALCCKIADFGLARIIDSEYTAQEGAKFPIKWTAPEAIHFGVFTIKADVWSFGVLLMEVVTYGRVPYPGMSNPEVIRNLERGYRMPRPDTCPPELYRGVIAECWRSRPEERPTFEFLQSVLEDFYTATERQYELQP

`C=CC(=O)N1CCC[C@@H](Oc2nc(Nc3ccc(N4CCN(C(C)=O)CC4)cc3)nc3[nH]cc(-c4cncc(NC)n4)c23)C1`: the K in test [1] came out at 0.31 min⁻¹. The inhibition (commonly the drop in the measured response relative to a control, in per cent) in [2] is “Active”. For the same compound, the IC50 (in general, the concentration needed to halve the response being measured) came out at 3.7 nM in test [3], 499 nM in test [4], 270 nM in test [5] and 24 nM in test [6]. The Ki (usually a dissociation constant, usually derived from enzyme kinetics or from competition with a known ligand) in [3] was determined as 33.7 nM. In addition, the Ratio in test [7] came to 153 ×10³ /M.s.

With `C#CCCN1CCN(c2ccc(Nc3nc(OC4CCN(C(=O)C=C)CC4)c4c(-c5cncc(NC)n5)c[nH]c4n3)cc2)CC1`, the 50% inhibitory concentration (IC50) in [3] was 55 nM; in test [4], above 3000 nM; in test [5], above 3000 nM; in test [6], 61 nM.

Consider `COc1ccc(-c2c[nH]c3nc(Nc4ccc(N5CCOCC5)cc4)nc(Oc4ccccc4)c23)cc1`, for which, in [8], the half-maximal inhibitory concentration (IC50) is above 10000 nM.

`C=CC(=O)Nc1cccc(Oc2nc(Nc3ccc(N4CCN(C(C)=O)CC4)cc3)nc3[nH]cc(-c4cncc(NC)n4)c23)c1`: the concentration for half-maximal inhibition (IC50) in test [3] stood at 5.4 nM; in test [5], 8 nM.

As to `C=CC(=O)N1CCC[C@@H](Oc2nc(Nc3ccc(N4CCN(CC)CC4)cc3)nc3[nH]cc(-c4cncc(NC)n4)c23)C1`, the 50% inhibitory concentration (IC50) in test [3] came out at 1.3 nM; in [4], 8.7 nM; in test [5] it was 26 nM; in test [6], 1.2 nM.

In the case of `C=CC(=O)N1CCC(Oc2nc(Nc3ccc(N4CCOCC4)cc3)nc3[nH]cc(-c4ccnc(NC)c4)c23)CC1`, the IC50 in test [3] is below 1.26 nM; in test [4] it was 38 nM; in test [5], 36 nM; in test [6], 4.2 nM.

As for `C=CC(=O)Nc1cccc(Oc2nc(Nc3ccc(N4CCN(C)CC4)c(F)c3)nc3[nH]ccc23)c1`, the inhibition in [9] turned out to be 80%.

Take `C=CC(=O)N1CCC[C@@H](Oc2nc(Nc3ccc(N4CCOCC4)cc3)nc3[nH]cc(-c4cncc(NC)n4)c23)C1`: the K in test [1] was found to be 0.31 min⁻¹. Also, the inhibition entry in [2] is “Active”. The IC50 was below 1.26 nM in test [3], 138 nM in test [4], 35 nM in test [5] and 11 nM in test [6]. In test [3], the inhibitory constant (Ki) came out at 5.8 nM. Further, the outcome in test [10] was Active. Also, the Ratio in test [7] came to 891 ×10³ /M.s.

For the compound `CNc1cncc(-c2c[nH]c3nc(Nc4ccc(N5CCN(C(C)=O)CC5)cc4)nc(Oc4ccccc4)c23)n1`, the IC50 in test [3] is 5.4 to 19 nM; in test [4] it was 1050 nM; in test [5], 1460 nM; in test [6], 470 nM.

For the compound `CNc1cncc(-c2c[nH]c3nc(Nc4ccc(N5CCN(C(C)=O)CC5)cc4)nc(OC4CCCCC4)c23)n1`, the IC50 in [3] is 5.1 nM; in test [4] it was 654 nM; in [5] it was 1470 nM; in [6] it was 104 nM.

As for `C=CC(=O)N1CCC(Oc2nc(Nc3ccc(N4CCOCC4)cc3)nc3[nH]cc(-c4cncc(NC)c4)c23)CC1`, the GI50 (usually the concentration that inhibits growth by half) with Jurkat was found to be 188 nM; in the test on MOLT-4, 109 nM; in the test with H9, 190 nM; with CCRF-CEM, 48 nM; in the test with HEK-293T, 270 nM. In addition, the IC50 in test [3] was 3.6 nM; in [4], above 3000 nM; in test [5], 942 nM; in [6], 84 nM.

With `C=CC(=O)Nc1cccc(Oc2nc(Nc3ccc(N4CCOCC4)cc3)nc3[nH]cc(-c4ccncc4)c23)c1`, the IC50 in [11] is 0.7 nM; in [3], 0.5 nM; in test [4] it was 2.3 nM; in test [5] it was 3.9 nM; in [6] it was 0.6 nM.

`C=CC(=O)N1CCC[C@@H]1COc1nc(Nc2ccc(N3CCN(C(C)=O)CC3)cc2)nc2[nH]cc(-c3cncc(NC)n3)c12`: the half-maximal inhibitory concentration (IC50) amounted to 2.2 nM in test [3], 150 nM in [4], 286 nM in test [5] and 69 nM in [6].

As to `Nc1ccc(-c2c[nH]c3nc(Nc4ccc(N5CCOCC5)cc4)nc(Oc4ccccc4)c23)cc1`, the half-maximal inhibitory concentration (IC50) in test [8] was above 10000 nM.

Regarding `C=CC(=O)N1CCC[C@H]1COc1nc(Nc2ccc(N3CCN(C(C)=O)CC3)cc2)nc2[nH]cc(-c3cncc(NC)n3)c12`, the IC50 in test [3] stood at 7.8 nM; in test [4], 1970 nM; in [5], 434 nM; in [6], 3.7 nM.

For the compound `CNc1cncc(-c2c[nH]c3nc(Nc4ccc(N5CCN(C(C)=O)CC5)cc4)nc(OC4CCOCC4)c23)n1`, the IC50 in test [3] was 7.1 nM; in test [4], 937 nM; in test [5], 1610 nM; in test [6] it was 186 nM.

In the case of `C=CC(=O)N1CCC[C@H](Oc2nc(Nc3ccc(N4CCN(C(C)=O)CC4)cc3)nc3[nH]cc(-c4cncc(NC)n4)c23)C1`, the IC50 in test [3] is 375 nM; in test [5], above 10000 nM.

Turning to `C=CC(=O)N1CCC(Oc2nc(Nc3ccc(N4CCN(C(C)=O)CC4)cc3)nc3[nH]cc(-c4cncc(NC)n4)c23)CC1`, the IC50 was 2.3 nM in [3], 903 nM in [4], 1480 nM in [5] and 51 nM in test [6].

Regarding `C=CC(=O)N1CCC(Oc2nc(Nc3ccc(N4CCOCC4)cc3)nc3[nH]cc(-c4cccc(NC)n4)c23)CC1`, the IC50 in [3] was 74 nM; in [4], above 3000 nM; in test [5] it was above 10000 nM; in [6] it was 1430 nM.

The values are drawn from ChEMBL document CHEMBL4346710, “Discovery of 7H-pyrrolo[2,3-d]pyrimidine derivatives as selective covalent irreversible inhibitors of interleukin-2-inducible T-cell kinase (Itk)” (Eur J Med Chem, 2019).
